Experimental data as given in US5536740A, “Skin care compositions containing dimethyl imidazolidinone and retinol or retinyl ester” (priority 1995, dated 1996).
“Also recorded” adds a separate entry of the source. Where two headings read alike, the source gives them in different places.

What was measured:
[1] = tested on: TGase I in human keratinocytes; assay: ELISA based transglutaminase I (TGase I) assay of keratinocyte differentiation; type: cell-based
Method: (§1) Human keratinocytes, isolated from neonatal foreskin by trypsin treatment were grown in Dulbecco Modification Eagle (DME) Hams F12 (1:1) medium/10% fetal calf serum in the presence of irradiated 3T3 mouse fibroblasts for establishing dividing keratinocyte colonies. Cells were grown under the above condition until their second passage and kept frozen for future use. […] On day 7, when the cells were 80-90% confluent, they were trypsinized and plated in the serum-free medium for the various experiments.
Transglutaminase Assay and Keratinocyte Differentiation
During the process of terminal differentiation in the epidermis, a 15 nm thick layer of protein, known as the cornified envelope (CE) is formed on the inner surface of the cell periphery. The CE is composed of numerous distinct proteins which have been cross-linked together by the formation of N^ε -(γ-glutamyl)lysine isodipeptide bonds catalyzed by the action of at least two different transglutaminases (TGases) expressed in the epidermis. TGase 1 is expressed in abundance in the differentiated layers of the epidermis, especially the granular layer, but is absent in the undifferentiated basal epidermis. Thus TGase I is a useful marker of epidermal keratinocyte differentiation with high TGase I levels indicating a more differentiated state. An ELISA based TGase I assay, using a TGase I antibody, was used to assess the state of differentiation of the cultured keratinocytes in the examples that follow.
Keratinocytes (cultured as described above) were plated in 96 well plates at a density of 3,000 cells per well in 200 μl media. After incubation for four days the media was changed to media containing test compounds (six replicates per test). The cells were cultured for a further 72 hours after which time the media was aspirated and the plates stored at -70° C. Plates were removed from the freezer, and the cells washed with PBS. 100 μl sterile water was added and the cells were freeze fractured by freezing at -70° C. then thawing. The cells were incubated for one hour at room temperature (R/T) with PBS/3% BSA (wash buffer, bovine serum albumin), then rinsed with a fresh aliquot of wash buffer. Cells were incubated with 50 μl of primary antibodies monoclonal anti-human transglutaminase (IgG) obtained from Amersham (mouse) diluted 1:300 in wash buffer for one hour, 37° C. then rinsed two times with wash buffer. Cells were then incubated with 50 μl of secondary antibody (Feb fragment, peroxidase conjugated anti-mouse IgG obtaining from Amersham) diluted 1:200 in wash buffer for one hour at 37° C., then rinsed two times with wash buffer. Cells were incubated with substrate solution (4 mg o-phenylene diamine and 3.3 μl 30% H2 O2 in 10 ml 0.1M citrate buffer pH 5.0) for five minutes, R/T, in darkness (under aluminum foil). The reaction was stopped by the addition of 50 μl 4N […]. The absorbance of samples was read at 492 nm in the plate reader. Out of the six replicates, four were treated with both antibodies, two were treated only with the secondary antibody (i.e., to determine background binding of enzyme conjugated Ab). TGase levels were determined by subtracting background from the readings from each treatment and determining mean ±s.d. for the replicates exposed to both Ab.
The level of TGase-1 was normalized to DNA content of the cells in the same well thus eliminating variation due to differences in cell number. DNA quantitation is a particularly useful indicator of cell number, including keratinocyte cell number, because each cell has to all intents and purposes an identical genome and therefore an identical quantity of DNA. The total DNA content of a well of cells therefore is directly proportional to the cell number in that well. Quantitation of DNA was used to normalize the TGase data to cell number.
Keratinocytes were plated in 96 well plates at a density of 3,000 cells per well in […] media.

[2] = tested on: Human keratinocytes; assay: 3H-thymidine incorporation assay of keratinocyte proliferation; type: cell-based; settings: for mean Thymidine incorp./μg protein ± s.d / activity at 0.25 µM / activity at 0.025 µM / activity at 0.0025 µM / mean Thymidine incorp/μg protein ± s.d: 24 hours
Method: as §1
^3 H-Thymidine Incorporation and Keratinocyte Proliferation
The incorporation of ^3 H-thymidine by cultured keratinocytes was used as an assay of keratinocyte proliferation. Thymidine is one of four deoxynucleosides which are the monomeric units of DNA, the universal library of genetic information in the animal kingdom. Prior to cell division of a somatic cell such as a keratinocyte, the complete genome of the cell undergoing cell division is replicated. This involves large scale DNA synthesis by the cell and enables both daughter cells to receive identical copies of the genetic material. When ^3 H-thymidine is included in the culture media of keratinocytes which are synthesizing DNA in preparation for cell division then the labelled nucleoside is incorporated into the newly synthesized DNA. The extent of incorporation of ^3 -thymidine into a population of cells is proportional to the rate of DNA synthesis by this population of cells and therefore an indication of their cellular proliferation.
Keratinocytes (that were cultured as described above) were plated in 24 well plates at a density of 40,000 cells per well in 1 ml media. After incubation for four days or until the cells were 60-70% confluent, the media was changed. Test compounds were added (in triplicate) to the wells 24 hours after the media change, and four hours later 1 μCi^3 H-Thymidine in 50 μl media was added per well. Cells were incubated for a further 24 hours. Media was removed from the cells, 10% ice cold trichloroacetic acid (TCA) added and plates were incubated on ice for 30 minutes. Cells were washed five times with 5% TCA and allowed to dissolve in 500 μl 0.1M NaOH for at least one hour (usually overnight). The preparations were neutralized with 0.1M HCl; 50 μl of the cell preparation was used to determine total protein content. Disintegrations per minute (DPM) from a H labelling of DNA was determined by liquid scintillation counting of 900 μl of the cell preparation. Thymidine incorporation results were expressed as DPM/μg protein.

[3] = 2.5 × 10^-7 M, normalized to DNA, 72 hours, n = 3
[4] = 2.5 × 10^-8 M, normalized to DNA, 72 hours, n = 3
[5] = 2.5 × 10^-9 M (ROH line printed 2.5 × 10^-0 M), normalized to DNA, 72 hours, n = 3
[6] = Homo sapiens, Keratinocyte, 72 h, 2.5 × 10^-7 M, normalized to DNA, 72 hours, n = 3, read-out: mean TGase/DNA (% control)
[7] = Homo sapiens, Keratinocyte, 72 h, 2.5 × 10^-8 M, normalized to DNA, 72 hours, n = 3, read-out: mean TGase/DNA (% control)
[8] = Homo sapiens, Keratinocyte, 72 h, 2.5 × 10^-9 M (ROH line printed 2.5 × 10^-0 M), normalized to DNA, 72 hours, n = 3, read-out: mean TGase/DNA (% control)
[9] = 2.5 × 10^-8 M, n = 3 (Examples 1-3)
[10] = Homo sapiens, Keratinocyte, 2.5 × 10^-7 M, n = 3, read-out: mean Thymidine incorp./μg protein (% control)
[11] = Homo sapiens, Keratinocyte, 2.5 × 10^-8 M, n = 3 (Examples 1-3), read-out: mean Thymidine incorp./μg protein (% control)
[12] = Homo sapiens, Keratinocyte, 2.5 × 10^-9 M, n = 3, read-out: mean Thymidine incorp./μg protein (% control)
[13] = Example 4, 2.5 × 10^-8 M, n = 3
[14] = Homo sapiens, Keratinocyte, 72 h, Example 4, 2.5 × 10^-8 M, n = 3, read-out: mean TGase (% control)
[15] = Homo sapiens, Keratinocyte, Example 4, 2.5 × 10^-8 M, n = 3, read-out: mean Thymidine incorp/μg protein (% control)

CC1=C(/C=C/C(C)=C/C=C/C(C)=C/CO)C(C)(C)CCC1 [ROH, Retinol]
mean TGase/DNA × 10^-4 ± s.d [1, 3]: 1.14 ± 0.22 × 10^-4
mean TGase/DNA × 10^-4 ± s.d [1, 4]: 1.89 ± 0.30 × 10^-4
mean TGase/DNA × 10^-4 ± s.d [1, 5]: 2.70 ± 0.59 × 10^-4
activity at 0.25 µM [1, 6]: 47%
activity at 0.025 µM [1, 7]: 77%
activity at 0.0025 µM [1, 8]: > 100%
effect on keratinocyte TGase level / differentiation (in words) ([1]; listed as Retinol): significantly less effective than retinoic acid at inhibiting keratinocyte differentiation
effect on keratinocyte TGase level / differentiation (in words) ([1]; listed as retinol): The decrease in transglutaminase level was dose dependant for both retinoic acid and retinol
effect on keratinocyte proliferation (in words) [2]: completely ineffective at increasing keratinocyte proliferation
mean Thymidine incorp./μg protein ± s.d ([2]; 2.5 × 10^-7 M, n = 3): 2218 ± 73 DPM/μg protein
mean Thymidine incorp./μg protein ± s.d ([2]; 2.5 × 10^-7 M, n = 3, listed as Retinol): 2218 ± 79 DPM/μg protein
mean Thymidine incorp./μg protein ± s.d [2, 9]: 2034 ± 46 DPM/μg protein
mean Thymidine incorp./μg protein ± s.d ([2]; 2.5 × 10^-9 M, n = 3): 1977 ± 19 DPM/μg protein
activity at 0.25 µM [2, 10]: 106%
activity at 0.025 µM [2, 11]: 97%
activity at 0.0025 µM [2, 12]: 94%

CC1=C(/C=C/C(C)=C/C=C/C(C)=C/C(=O)O)C(C)(C)CCC1 [RA, retinoic acid, reference compound]
mean TGase/DNA × 10^-4 ± s.d [1, 3]: 0.16 ± 0.11 × 10^-4
mean TGase/DNA × 10^-4 ± s.d [1, 4]: 1.34 ± 0.40 × 10^-4
mean TGase/DNA × 10^-4 ± s.d [1, 5]: 1.87 ± 0.49 × 10^-4
mean TGase ± s.d [1, 13]: 0.155 ± 0.098
mean TGase (% control) ([1]; Example 4, 2.5 × 10^-8 M, n = 3, 0.025 µM, 4320 min): 15%
activity at 0.25 µM [1, 6]: 7%
activity at 0.025 µM [1, 7]: 55%
activity at 0.0025 µM [1, 8]: 77%
activity at 0.025 µM [1, 14]: 16%
effect on keratinocyte TGase level / differentiation (in words) ([1]; listed as Retinoic acid): decreased keratinocyte differentiation
effect on keratinocyte TGase level / differentiation (in words) ([1]; listed as retinoic acid): decreased keratinocyte TGase level over both the ethanol control and did so to a significantly greater extent than each of the corresponding 2.5×10^-7 M, 2.5×10^-8 M and 2.5×10^-9 M retinol treatments
mean Thymidine incorp./μg protein ± s.d ([2]; 2.5 × 10^-7 M, n = 3): 2475 ± 116 DPM/μg protein
mean Thymidine incorp./μg protein ± s.d [2, 9]: 2686 ± 72 DPM/μg protein
mean Thymidine incorp./μg protein ± s.d ([2]; 2.5 × 10^-9 M, n = 3): 2556 ± 80 DPM/μg protein
mean Thymidine incorp/μg protein ± s.d [2, 13]: 3691 ± 205 DPM/μg protein
activation at 0.025 µM ([2]; Homo sapiens, Keratinocyte, read-out: increase in keratinocyte thymidine incorporation over the 2.5×10^-8 M retinol treatment, Example 2, 2.5×10^-8 M): 28%
activation at 0.025 µM ([2]; Homo sapiens, Keratinocyte, read-out: increase in keratinocyte thymidine incorporation over the 2.5×10^-8 M retinyl palmitate treatment, Example 4, 2.5×10^-8 M): 6%
activation at 0.025 µM ([2]; Homo sapiens, Keratinocyte, read-out: increase in keratinocyte thymidine incorporation over the ethanol control, Example 2, 2.5×10^-8 M): 28%
activation at 0.025 µM ([2]; Homo sapiens, Keratinocyte, read-out: increase in keratinocyte thymidine incorporation over the ethanol control, Example 4, 2.5×10^-8 M): 6%
activity at 0.25 µM [2, 10]: 118%
activity at 0.025 µM [2, 11]: 128%
activity at 0.0025 µM [2, 12]: 122%
activity at 0.025 µM [2, 15]: 106%
effect on keratinocyte proliferation (in words) ([2]; listed as Retinoic acid): increased keratinocyte proliferation
effect on keratinocyte proliferation (in words) ([2]; listed as retinoic acid): significantly increased keratinocyte proliferation over both the ethanol control and each of the 2.5×10^-7 M, 2.5×10^-8 M and 2.5×10^-9 M retinol treatments and they did so in a dose dependant manner

CN1CCN(C)C1=O [Dimethyl imidazolidinone, 1,3-dimethyl-2-imidazolidinone]
effect on keratinocyte TGase level / differentiation (in words) [1]: had no effect on keratinocyte TG1 levels
mean TGase ± s.d ([1]; Example 4, 10^-8 M, n = 3): 0.990 ± 0.251
activity at 0.01 µM ([1]; Homo sapiens, Keratinocyte, 72 h, read-out: mean TGase (% control)): 99%
effect on keratinocyte proliferation (in words) [2]: had no effect on keratinocyte proliferation on its own; also recorded: exerts little or no benefit
mean Thymidine incorp/μg protein ± s.d ([2]; 10^-6 M, n = 3): 1892 ± 119 DPM/μg protein
mean Thymidine incorp/μg protein ± s.d ([2]; 10^-7 M, n = 3 (Example 3)): 2260 ± 166 DPM/μg protein
mean Thymidine incorp/μg protein ± s.d ([2]; 10^-9 M, n = 3): 2003 ± 128 DPM/μg protein
mean Thymidine incorp/μg protein ± s.d ([2]; Example 4, 10^-7 M, n = 3): 3214 ± 128 DPM/μg protein
activity at 1 µM ([2]; Homo sapiens, Keratinocyte, 24 h, read-out: mean Thymidine incorp/μg protein (% control), 10^-6 M, 24 hours, n = 3): 90%
activity at 0.1 µM ([2]; Homo sapiens, Keratinocyte, 24 h, read-out: mean Thymidine incorp/μg protein (% control), 10^-7 M, 24 hours, n = 3 (Example 3)): 108%
activity at 0.001 µM ([2]; Homo sapiens, Keratinocyte, 24 h, read-out: mean Thymidine incorp/μg protein (% control), 10^-9 M, 24 hours, n = 3): 96%
activity at 0.1 µM ([2]; Homo sapiens, Keratinocyte, 24 h, read-out: mean Thymidine incorp/μg protein (% control), Example 4, 10^-7 M, 24 hours, n = 3): 92%

CCCCCCCCCCCCCCCC(=O)OC/C=C(C)/C=C/C=C(C)/C=C/C1=C(C)CCCC1(C)C [Retinyl Palmitate (RP), retinyl palmitate]
effect on keratinocyte TGase level / differentiation (in words) [1]: significantly less effective than retinoic acid at inhibiting keratinocyte differentiation
mean TGase ± s.d [1, 13]: 0.790 ± 0.387
activity at 0.025 µM [1, 14]: 79%
effect on keratinocyte proliferation (in words) [2]: completely ineffective at increasing keratinocyte proliferation
mean Thymidine incorp/μg protein ± s.d [2, 13]: 3386 ± 326 DPM/μg protein
activity at 0.025 µM [2, 15]: 97%
